Patent US20060100431A1, “Biologically active compounds” (Amura Therapeutics Limited, priority 2002, published 2006)
Where two headings read alike, the source gives them in different places. Each block holds one molecule with its values, some of them ahead of it.

Tests used:
Assay type in all cases: biochemical
Wild-type cruzipain = Wild-type cruzipain (Trypanosoma cruzi, UniProt P25779); experiment: Trypanosoma cruzi cruzipain peptidase activity assay (Ki); settings: read-out: Ki, inhibitors of cruzain and cruzipains
Sequence of Wild-type cruzipain (P25779 whole entry): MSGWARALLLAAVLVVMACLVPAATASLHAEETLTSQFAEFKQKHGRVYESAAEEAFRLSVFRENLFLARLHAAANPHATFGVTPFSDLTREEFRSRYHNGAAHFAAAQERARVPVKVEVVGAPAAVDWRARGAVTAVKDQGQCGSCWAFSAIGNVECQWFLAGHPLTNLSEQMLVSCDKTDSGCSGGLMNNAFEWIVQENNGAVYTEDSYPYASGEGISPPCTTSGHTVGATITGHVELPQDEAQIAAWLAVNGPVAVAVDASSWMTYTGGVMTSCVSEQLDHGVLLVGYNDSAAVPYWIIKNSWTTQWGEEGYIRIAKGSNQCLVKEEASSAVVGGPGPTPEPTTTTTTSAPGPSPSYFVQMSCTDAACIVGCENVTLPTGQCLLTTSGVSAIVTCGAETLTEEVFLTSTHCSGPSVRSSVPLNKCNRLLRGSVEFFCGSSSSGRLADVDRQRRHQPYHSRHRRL
Outline: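 Native cruzipain from T. cruzi Dm28 epimastigotes, 2.5 nM, in 100 mM sodium phosphate pH 6.75 with 1 mM EDTA and 10 mM L-cysteine, 25 °C, DMSO <1%. Rates taken from continuous fluorogenic substrate read; Ki by regression assuming reversible pure-competitive inhibition.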

CPB2.8ΔCTE = biological target: T1, CPB2.8ΔCTE (Leishmania mexicana, UniProt P36400); experiment: Leishmania mexicana cysteine protease B (CPB) peptidase activity assay (Ki); settings: Ki, inhibitors of Leismania mexicana CPB protease
T1 construct: Wild-type recombinant CPB without the C-terminal extention (i.e. CPB2.8ΔCTE); Dr. Jeremy Mottram (Wellcome Centre for Molecular Parasitology, University of Glasgow)
T1 sequence (P36400 126-343, stated change not applied): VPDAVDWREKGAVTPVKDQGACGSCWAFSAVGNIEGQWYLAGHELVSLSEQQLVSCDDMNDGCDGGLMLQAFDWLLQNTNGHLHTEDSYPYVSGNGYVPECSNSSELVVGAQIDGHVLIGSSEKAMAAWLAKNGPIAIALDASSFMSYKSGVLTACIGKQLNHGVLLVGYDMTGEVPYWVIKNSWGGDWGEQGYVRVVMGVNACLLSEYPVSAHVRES
Outline: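 Recombinant CPB2.8ΔCTE (0.25 nM) was assayed in 100 mM sodium acetate pH 5.5 with 1 mM EDTA, 200 mM NaCl and 10 mM DTT at 25 °C, DMSO <1%, enzyme added to start. Rates were taken from continuous fluorescence slopes; apparent Ki was fitted assuming reversible, pure-competitive inhibition.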

human cathepsin B = biological target: T2, human cathepsin B (Homo sapiens, UniProt P07858); experiment: Cathepsin B peptidase activity assay (Ki)
T2 construct: purchased CN Biosciences
Protocol: Unless otherwise stated, all general chemicals and biochemicals were purchased from either the Sigma Chemical Company, Poole, Dorset, U.K or from Fisher Scientific UK, Loughborough, Leicestershire, U.K. Absorbance assays were carried out in flat-bottomed 96-well plates (Spectra; Greiner Bio-One Ltd., Stonehouse, Gloucestershire, U.K.) using a SpectraMax PLUS384 plate reader (Molecular Devices, Crawley, U.K.). […] Fluorescence assays were monitored using a SpectraMax Gemini fluorescence plate reader (Molecular Devices). For substrates employing either a 7-amino-4-methylcoumarin (AMC) or a 7-amino-4-trifluoromethylcoumarin (AFC) fluorophore, assays were monitored at an excitation wavelength of 365 nm and an emission wavelength of 450 nm and the fluorescence plate reader calibrated with AMC. For substrates employing a 3-amino-benzoyl (Abz) fluorophore, assays were monitored at an excitation wavelength of 310 nm and an emission wavelength of 445 nm; the fluorescence plate reader calibrated with 3-amino-benzamide (Fluka). Unless otherwise indicated, all the peptidase substrates were purchased from Bachem UK, St Helens, Merseyside, UK. […] Hydroxyethylpiperazine ethanesulfonate (HEPES), tris-hydroxylmethyl aminomethane (tris) base, bis-tris-propane and all the biological detergents (e.g. CHAPS, zwittergents, etc.) were purchased from CN Biosciences UK, Beeston, Nottinghamshire, U.K. Glycerol was purchased from Amersham Pharmacia Biotech, Little Chalfont, Buckinghamshire, U.K. Stock solutions of substrate or inhibitor were made up to 10 mM in 100% dimethylsulfoxide (DMSO) (Rathburns, Glasgow, U.K.) and diluted as appropriately required. In all cases the DMSO concentration in the assays was maintained at less than 1% (vol./vol.).
Enzyme was added as required to initiate the reaction and the activity, as judged by the change in fluorescence upon conversion of substrate to product, was monitored over time. All assays were carried out at 25±1° C.
Bovine cathepsin S, human cathepsin L, human cathepsin H and human cathepsin B were obtained from CN Biosciences. Recombinant human cathepsin S, human cathepsin K and human cathepsin X were obtained from Dr. Boris Turk (Josef Stefan Institute, Ljubljana, Slovenia). Unless otherwise stated, all peptidase activity assays were carried out in 10 mM bis-tris-propane (BTP), pH 6.5 containing 1 mM EDTA, 5 mM 2-mercaptoethanol and 1 mM CaCl2.
The apparent inhibition constant (Ki) for each compound was determined on the basis that inhibition was reversible and occurred by a pure-competitive mechanism. […] [formula]
[formula] Ki^app=Ki(1+[So]/KM^app) (4)
Curves were fitted by non-linear regression analysis (Prism) using a fixed value for the enzyme concentration.

[1] = read-out: Ki, inhibitors of cathepsin B

Compound: CC(C)C[C@H](NC(=O)c1ccc(C(C)(C)C)cc1)C(=O)N1CC[C@@H]2[C@H]1C(=O)CN2C(=O)c1csc(-c2ccccc2)n1 [Example 27, (3aR,6aS)-4-tert-Butyl-N-{(1S)-3-methyl-1-[6-oxo-4-(2-phenyl-thiazole-4-carbonyl)-hexahydro-pyrrolo[3,2-b]pyrrole-1-carbonyl]-butyl}-benzamide]
- Ki (Wild-type cruzipain): < 5 µM
- Ki (CPB2.8ΔCTE): < 5 µM
- Ki (human cathepsin B; [1]): < 5 µM

Compound: CC(C)C[C@H](NC(=O)c1ccc(C(C)(C)C)cc1)C(=O)N1CC[C@@H]2[C@H]1C(=O)CN2C(=O)c1ccc2ccccc2c1 [Example 34, (3aR,6aS)-4-tert-Butyl-N-{(1S)-3-methyl-1-[4-(naphthalene-2-carbonyl)-6-oxo-hexahydro-pyrrolo[3,2-b]pyrrole-1-carbonyl]-butyl}-benzamide]
- Ki (Wild-type cruzipain): < 5 µM
- Ki (CPB2.8ΔCTE): < 5 µM
- Ki (human cathepsin B; [1]): < 5 µM

Compound: CC(C)C[C@H](NC(=O)c1ccc(C(C)(C)C)cc1)C(=O)N1CC[C@@H]2[C@H]1C(=O)CN2C(=O)c1cncc(-c2cccs2)c1 [Example 35, (3aR,6aS)-4-tert-Butyl-N-{(1S)-3-methyl-1-[6-oxo-4-(5-thiophen-2-yl-pyridine-3-carbonyl)-hexahydro-pyrrolo[3,2-b]pyrrole-1-carbonyl]-butyl}-benzamide]
- Ki (Wild-type cruzipain): < 5 µM
- Ki (CPB2.8ΔCTE): < 5 µM
- Ki (human cathepsin B; [1]): < 5 µM

Compound: CC(C)C[C@H](NC(=O)c1ccc(N(C)C)cc1)C(=O)N1CC[C@@H]2[C@H]1C(=O)CN2C(=O)c1cccc(S(C)(=O)=O)c1 [Example 43, (3aR,6aS)-4-Dimethylamino-N-{(1S)-1-[4-(3-methanesulfonyl-benzoyl)-6-oxo-hexahydro-pyrrolo[3,2-b]pyrrole-1-carbonyl]-3-methyl-butyl}-benzamide]
- Ki (Wild-type cruzipain): < 5 µM
- Ki (CPB2.8ΔCTE): < 5 µM
- Ki (human cathepsin B; [1]): < 5 µM

Compound: CC(C)C[C@H](NC(=O)c1ccc(N(C)C)cc1)C(=O)N1CC[C@@H]2[C@H]1C(=O)CN2C(=O)c1cccc([N+](=O)[O-])c1 [Example 46, (3aR,6aS)-4-Dimethylamino-N-{(1S)-3-methyl-1-[4-(3-nitro-benzoyl)-6-oxo-hexahydro-pyrrolo[3,2-b]pyrrole-1-carbonyl]-butyl}-benzamide]
- Ki (Wild-type cruzipain): < 5 µM
- Ki (CPB2.8ΔCTE): < 5 µM
- Ki (human cathepsin B; [1]): < 5 µM

Compound: CC(C)C[C@H](NC(=O)c1ccc(N(C)C)cc1)C(=O)N1CC[C@@H]2[C@H]1C(=O)CN2C(=O)C12CC3CC(CC(C3)C1)C2 [Example 48, (3aR,6aS)-N-{(1S)-1-[4-(Adamantane-1-carbonyl)-6-oxo-hexahydro-pyrrolo[3,2-b]pyrrole-1-carbonyl]-3-methyl-butyl}-4-dimethylamino-benzamide]
- Ki (Wild-type cruzipain): < 5 µM
- Ki (CPB2.8ΔCTE): < 5 µM
- Ki (human cathepsin B; [1]): < 5 µM

Compound: CC(C)C[C@H](NC(=O)c1ccc(N(C)C)cc1)C(=O)N1CC[C@@H]2[C@H]1C(=O)CN2C(=O)c1ccc(F)cc1 [Example 57, (3aR,6aS)-4-Dimethylamino-N-{(1S)-1-[4-(4-fluoro-benzoyl)-6-oxo-hexahydro-pyrrolo[3,2-b]pyrrole-1-carbonyl]-3-methyl-butyl}-benzamide]
- Ki (CPB2.8ΔCTE): < 5 µM
- Ki (human cathepsin B; [1]): < 5 µM

Compound: CCN(CC)c1ccc(C(=O)N[C@@H](CC(C)C)C(=O)N2CC[C@@H]3[C@H]2C(=O)CN3C(=O)c2cccc(S(C)(=O)=O)c2)cc1 [Example 60, (3aR,6aS)-4-Diethylamino-N-{(1S)-1-[4-(3-methanesulfonyl-benzoyl)-6-oxo-hexahydro-pyrrolo[3,2-b]pyrrole-1-carbonyl]-3-methyl-butyl}-benzamide]
- Ki (Wild-type cruzipain): < 5 µM
- Ki (CPB2.8ΔCTE): < 5 µM
- Ki (human cathepsin B; [1]): < 5 µM

Compound: CC(C)C[C@H](NC(=O)c1ccc(N(C)C)cc1)C(=O)N1CC[C@@H]2[C@H]1C(=O)CN2C(=O)c1ccc(Cl)cc1 [Example 74, (3aR,6aS)-N-{(1S)-1-[4-(4-Chloro-benzoyl)-6-oxo-hexahydro-pyrrolo[3,2-b]pyrrole-1-carbonyl]-3-methyl-butyl}-4-dimethylamino-benzamide]
- Ki (Wild-type cruzipain): < 5 µM
- Ki (CPB2.8ΔCTE): < 5 µM
- Ki (human cathepsin B; [1]): < 5 µM

Compound: CC(C)C[C@H](NC(=O)c1ccc(N(C)C)cc1)C(=O)N1CC[C@@H]2[C@H]1C(=O)CN2C(=O)c1ccc2c(c1)OCO2 [Example 77, (3aR,6aS)-N-{(1S)-1-[4-(Benzo[1,3]dioxole-5-carbonyl)-6-oxo-hexahydro-pyrrolo[3,2-b]pyrrole-1-carbonyl]-3-methyl-butyl}-4-dimethylamino-benzamide]
- Ki (Wild-type cruzipain): < 5 µM
- Ki (CPB2.8ΔCTE): < 5 µM
- Ki (human cathepsin B; [1]): < 5 µM

Compound: CC(C)C[C@H](NC(=O)c1ccc(N(C)C)cc1)C(=O)N1CC[C@@H]2[C@H]1C(=O)CN2C(=O)c1ccc2cc[nH]c2c1 [Example 99, (3aR,6aS)-4-Dimethylamino-N-{(1S)-1-[4-(1H-indole-6-carbonyl)-6-oxo-hexahydro-pyrrolo[3,2-b]pyrrole-1-carbonyl]-3-methyl-butyl}-benzamide]
- Ki (Wild-type cruzipain): < 5 µM
- Ki (CPB2.8ΔCTE): < 5 µM
- Ki (human cathepsin B; [1]): < 5 µM

Compound: CC(C)C[C@H](NC(=O)c1ccc(N(C)C)cc1)C(=O)N1CC[C@@H]2[C@H]1C(=O)CN2C(=O)c1ccc2nonc2c1 [Example 102, (3aR,6aS)-N-{(1S)-1-[4-(Benzo[1,2,5]oxadiazole-5-carbonyl)-6-oxo-hexahydro-pyrrolo[3,2-b]pyrrole-1-carbonyl]-3-methyl-butyl}-4-dimethylamino-benzamide]
- Ki (Wild-type cruzipain): < 5 µM
- Ki (CPB2.8ΔCTE): < 5 µM
- Ki (human cathepsin B; [1]): < 5 µM

Compound: CC(C)C[C@H](NC(=O)c1ccc(N(C)C)cc1)C(=O)N1CC[C@@H]2[C@H]1C(=O)CN2C(=O)C1CCCCCC1 [Example 135, (3aR,6aS)-N-[(1S)-1-(4-Cycloheptanecarbonyl-6-oxo-hexahydro-pyrrolo[3,2-b]pyrrole-1-carbonyl)-3-methyl-butyl]-4-dimethylamino-benzamide]
- Ki (Wild-type cruzipain): < 5 µM
- Ki (CPB2.8ΔCTE): < 5 µM
- Ki (human cathepsin B): < 5 µM

Compound: CCC(C)CC(=O)N1CC(=O)[C@@H]2[C@H]1CCN2C(=O)[C@H](CC(C)C)NC(=O)c1ccc(N(C)C)cc1 (stereo partly drawn) [Example 141, (3aR,6aS)-4-Dimethylamino-N-{(1S)-3-methyl-1-[4-(3-methyl-pentanoyl)-6-oxo-hexahydro-pyrrolo[3,2-b]pyrrole-1-carbonyl]-butyl}-benzamide]
- Ki (Wild-type cruzipain): < 5 µM
- Ki (CPB2.8ΔCTE): < 5 µM
- Ki (human cathepsin B; [1]): < 5 µM

Compound: CC(C)C[C@H](NC(=O)c1ccc(N(C)C)cc1)C(=O)N1CC[C@@H]2[C@H]1C(=O)CN2C(=O)c1ccc(Cl)s1 [Example 166, (3aR,6aS)-N-{(1S)-1-[4-(5-Chloro-thiophene-2-carbonyl)-6-oxo-hexahydro-pyrrolo[3,2-b]pyrrole-1-carbonyl]-3-methyl-butyl}-4-dimethylamino-benzamide]
- Ki (Wild-type cruzipain): < 5 µM
- Ki (CPB2.8ΔCTE): < 5 µM
- Ki (human cathepsin B; [1]): < 5 µM

- Ki (Wild-type cruzipain): < 5 µM
- Ki (human cathepsin B; [1]): < 5 µM
Compound: O=C(N[C@@H](Cc1ccc(O)cc1)C(=O)N1CC[C@@H]2[C@H]1C(=O)CN2C(=O)c1ccc(O)cc1)c1cccc(Br)c1 [Example 309, (3aR,6aS)-3-Bromo-N-[(1S)-2-[4-(4-hydroxy-benzoyl)-6-oxo-hexa hydro-pyrrolo[3,2-b]pyrrole-1-yl]-1-(4-hydroxy-benzyl)-2-oxo-ethyl]-benzamide]

- Ki (Wild-type cruzipain): < 5 µM
- Ki (human cathepsin B; [1]): < 5 µM
Compound: O=C(N[C@@H](Cc1ccc(O)cc1)C(=O)N1CC[C@@H]2[C@H]1C(=O)CN2C(=O)C1CCCCC1)c1cccc(Br)c1 [Example 325, (3aR,6aS)-3-Bromo-N-[(1S)-2-(4-cyclohexanecarbonyl-6-oxo-hexahydro-pyrrolo[3,2-b]pyrrole-1-yl)-1-(4-hydroxy-benzyl)-2-oxo-ethyl]-benzamide]

- Ki (Wild-type cruzipain): < 5 µM
- Ki (human cathepsin B; [1]): < 5 µM
Compound: Cc1cccc(C(=O)N2CC(=O)[C@@H]3[C@H]2CCN3C(=O)[C@H](Cc2ccc(O)cc2)NC(=O)c2cccc(Br)c2)c1 [Example 327, (3aR,6aS)-3-Bromo-N-{(1S)-1-(4-hydroxy-benzyl)-2-[4-(3-methyl-benzoyl)-6-oxo-hexahydro-pyrrolo[3,2-b]pyrrol-1-yl]-2-oxo-ethyl}-benzamide]
